From US8642597B2, “Pyrazole compounds for controlling invertebrate pests” (BASF SE, priority 2007, dated 2014)

Assays:
Format in all cases: in vivo
[1] = tested on: Cotton Aphid (aphis gossypii, Mixed Life Stages); test: Cotton aphid (aphis gossypii, mixed life stages), cotyledon dip test; conditions: 120 h, mortality counts after 5 days, in comparison with untreated controls
Text: (§1) The active compounds were formulated in 50:50 (vol:vol) acetone:water and 100 ppm Kinetica™ surfactant.
Cotton plants at the cotyledon stage (one plant per pot) were infested by placing a heavily infested leaf from the main colony on top of each cotyledon. The aphids were allowed to transfer to the host plant overnight, and the leaf used to transfer the aphids was removed. The cotyledons were dipped in the test solution and allowed to dry. After 5 days, mortality counts were made.

[2] = tested on: Green Peach Aphid (Myzus persicae, Mixed Life Stages); test: Green peach aphid (Myzus persicae, mixed life stages), pepper leaf dip test; conditions: foliar, 120 h, after 5 days, in comparison with untreated controls
Text: as §1
Pepper plants in the 2nd leaf-pair stage (variety ‘California Wonder’) were infested with approximately 40 laboratory-reared aphids by placing infested leaf sections on top of the test plants. The leaf sections were removed after 24 hr. The leaves of the intact plants were dipped into gradient solutions of the test compound and allowed to dry. Test plants were maintained under fluorescent light (24 hour photoperiod) at about 25° C. and 20-40% relative humidity. Aphid mortality on the treated plants, relative to mortality on check plants, was determined after 5 days.

[3] = tested on: Southern Armyworm (spodoptera eridania, 2nd instar larvae); test: Southern armyworm (spodoptera eridania, 2nd instar larvae), lima bean leaf dip test; conditions: foliar, 96 h, at 4 days, in comparison with untreated controls
Experimental: as §1
A pair of first true leaves of Sieva lima bean was dipped in the test solution and allowed to dry. The leaf was then placed in a plastic perforated zip enclosure bag and ten 2nd instar larvae were added. At 4 days, observations were made of mortality and reduced feeding.

[4] = tested on: Cowpea Aphid (aphis craccivora); test: Cowpea aphid (aphis craccivora), spray on potted cowpea plants; conditions: population reduction assessed after 24, 72 and 120 hours, in comparison with untreated controls
Experimental: The active compounds were formulated in 50:50 (vol:vol) acetone:water. The test solution was prepared at the day of use.
Potted cowpea plants colonized with 100-150 aphids of various stages were sprayed after the pest population had been recorded. Population reduction was assessed after 24, 72, and 120 hours.

[5] = tested on: Vetch Aphid (Megoura viciae); test: Vetch aphid (Megoura viciae), bean leaf disk microtiterplate test; conditions: foliar, 144 h, concentration of the test solution 2500 mg/L, 6 days
Experimental: The active compounds were formulated in 1:3 (vol:vol) DMSO:water with different concentrations of formulated compounds.
Bean leaf disks were placed into microtiterplates filled with 0.8% agar-agar and 2.5 ppm OPUS™. The leaf disks were sprayed with 2.5 μl of the test solution and 5 to 8 adult aphids were placed into the microtiterplates which were then closed and kept at 23±1° C. and 50±5% relative humidity under fluorescent light for 6 days. Mortality was assessed on the basis of vital, reproduced aphids. Aphid mortality and fecundity was then visually assessed.

[6] = tested on: Boll Weevil (Anthonomus grandis); test: Boll weevil (Anthonomus grandis), insect diet microtiter plate test; conditions: 120 h, concentration of the test solution 2500 mg/L, egg and larval mortality after 5 days
Experimental: The compounds were formulated in 75:25 (vol:vol) water:DMSO.
For evaluating control of boll weevil (Anthonomus grandis) the test unit consisted of 24-well-microtiter plates containing an insect diet and 20-30 A. grandis eggs. Different concentrations of formulated compounds were sprayed onto the insect diet at 20 μl, using a custom built micro atomizer, at two replications. After application, the microtiter plates were incubated at 23±1° C. and 50±5% relative humidity for 5 days. Egg and larval mortality was then visually assessed.

SMILES: CN(C(=O)c1cnn(C(F)(F)F)c1)c1cccnc1 [Compound 233]
- mortality at 300 ppm [1]: ≥ 75%
- mortality at 300 ppm [2]: ≥ 50%
- mortality at 300 ppm [3]: ≥ 50%

SMILES: O=C(Nc1cccnc1)c1cnn(-c2ccccc2Cl)c1C(F)F [Compound 148]
- mortality at 300 ppm [1]: ≥ 75%
- mortality at 300 ppm [2]: ≥ 50%
- mortality at 300 ppm [4]: ≥ 75%
- mortality at 2500 µg/mL [5]: ≥ 80%
- mortality at 2500 µg/mL [6]: 100%

SMILES: O=C(Nc1cccnc1)c1cn[nH]c1 [Compound 87]
- mortality at 300 ppm [1]: ≥ 75%
- mortality at 300 ppm [2]: ≥ 50%
- mortality at 300 ppm [4]: ≥ 75%
- mortality at 2500 µg/mL [5]: ≥ 80%
- mortality at 2500 µg/mL [6]: 100%

SMILES: Cn1nc(C(F)(F)F)c(C(=O)Nc2cccnc2)c1F [Compound 78]
- mortality at 300 ppm [3]: ≥ 50%

SMILES: O=C(Nc1cccnc1)c1cnn(C(F)F)c1C(F)(F)F [Compound 190]
- mortality at 300 ppm [1]: ≥ 75%
- mortality at 300 ppm [2]: ≥ 50%
- mortality at 300 ppm [4]: ≥ 75%
- mortality at 2500 µg/mL [5]: ≥ 80%
- mortality at 2500 µg/mL [6]: 100%

SMILES: Cc1ccccc1-n1ncc(C(=O)Nc2cccnc2)c1C(F)F [Compound 156]
- mortality at 300 ppm [1]: ≥ 75%
- mortality at 300 ppm [2]: ≥ 50%
- mortality at 300 ppm [4]: ≥ 75%
- mortality at 2500 µg/mL [5]: ≥ 80%
- mortality at 2500 µg/mL [6]: 100%

SMILES: O=C(Nc1cccnc1)c1cn(C(F)F)nc1C(F)F [Compound 194]
- mortality at 300 ppm [1]: ≥ 75%
- mortality at 300 ppm [2]: ≥ 50%
- mortality at 300 ppm [4]: ≥ 75%
- mortality at 2500 µg/mL [5]: ≥ 80%
- mortality at 2500 µg/mL [6]: 100%

SMILES: Cn1cc(C(=O)Nc2cccnc2)c(OC(F)F)n1 [Compound 110]
- mortality at 300 ppm [1]: ≥ 75%
- mortality at 300 ppm [2]: ≥ 50%
- mortality at 300 ppm [4]: ≥ 75%
- mortality at 2500 µg/mL [5]: ≥ 80%
- mortality at 2500 µg/mL [6]: 100%

SMILES: O=C(Nc1cccnc1)c1cnn(C(F)F)c1 [Compound 213]
- mortality at 300 ppm [1]: ≥ 75%
- mortality at 300 ppm [2]: ≥ 50%
- mortality at 300 ppm [4]: ≥ 75%
- mortality at 300 ppm [3]: ≥ 50%

SMILES: Cc1nn(C(F)F)cc1C(=O)Nc1cccnc1 [Compound 209]
- mortality at 300 ppm [1]: ≥ 75%
- mortality at 300 ppm [2]: ≥ 50%
- mortality at 300 ppm [4]: ≥ 75%
- mortality at 300 ppm [3]: ≥ 50%

SMILES: CCc1c(C(=O)N(C)c2cccnc2)cnn1CC [Compound 185]
- mortality at 300 ppm [1]: ≥ 75%
- mortality at 300 ppm [2]: ≥ 50%
- mortality at 300 ppm [4]: ≥ 75%
- mortality at 2500 µg/mL [5]: ≥ 80%
- mortality at 2500 µg/mL [6]: 100%

SMILES: CCn1ncc(C(=O)N(C)c2cccnc2)c1C(F)(F)F [Compound 186]
- mortality at 300 ppm [1]: ≥ 75%
- mortality at 300 ppm [2]: ≥ 50%
- mortality at 300 ppm [4]: ≥ 75%
- mortality at 2500 µg/mL [5]: ≥ 80%
- mortality at 2500 µg/mL [6]: 100%

SMILES: CN(C(=O)c1cnn(C)c1C(F)(F)F)c1cccnc1 [Compound 174]
- mortality at 300 ppm [1]: ≥ 75%
- mortality at 300 ppm [2]: ≥ 50%
- mortality at 300 ppm [4]: ≥ 75%
- mortality at 300 ppm [3]: ≥ 50%

SMILES: Cn1cc(C(=O)Nc2cccnc2)c(C(F)F)n1 [Compound 170]
- mortality at 300 ppm [1]: ≥ 75%
- mortality at 300 ppm [2]: ≥ 50%
- mortality at 300 ppm [4]: ≥ 75%
- mortality at 300 ppm [3]: ≥ 50%

SMILES: Cn1ncc(C(=O)Nc2cccnc2)c1C(F)F [Compound 167]
- mortality at 300 ppm [1]: ≥ 75%
- mortality at 300 ppm [2]: ≥ 50%
- mortality at 300 ppm [4]: ≥ 75%
- mortality at 2500 µg/mL [5]: ≥ 80%
- mortality at 2500 µg/mL [6]: 100%

SMILES: O=C(Nc1cccnc1)c1cnn(-c2ccc([N+](=O)[O-])cc2)c1C(F)(F)F [Compound 199]
- mortality at 300 ppm [1]: ≥ 75%
- mortality at 300 ppm [2]: ≥ 50%
- mortality at 300 ppm [4]: ≥ 75%
- mortality at 300 ppm [3]: ≥ 50%

SMILES: CCS/C(=N\c1cccnc1)c1cn(C)nc1C(F)(F)F [Compound 243]
- mortality at 300 ppm [1]: ≥ 75%
- mortality at 300 ppm [2]: ≥ 50%
- mortality at 300 ppm [4]: ≥ 75%
- mortality at 2500 µg/mL [5]: ≥ 80%
- mortality at 2500 µg/mL [6]: 100%

SMILES: Cc1c(C(=O)Nc2cccnc2)cnn1C [Compound 179]
- mortality at 300 ppm [1]: ≥ 75%
- mortality at 300 ppm [2]: ≥ 50%
- mortality at 300 ppm [4]: ≥ 75%
- mortality at 300 ppm [3]: ≥ 50%

SMILES: CCCn1cc(C(=O)Nc2cccnc2)cn1 [Compound 108]
- mortality at 300 ppm [1]: ≥ 75%
- mortality at 300 ppm [2]: ≥ 50%
- mortality at 300 ppm [4]: ≥ 75%
- mortality at 2500 µg/mL [5]: ≥ 80%
- mortality at 2500 µg/mL [6]: 100%
